The target in data set [1] is Carbonic anhydrase 1 (Homo sapiens, UniProt P00915). In words: Inhibition of human cytosolic CA 1 preincubated for 15 mins by phenol red dye-based stopped-flow CO2 hydration assay.
Data set [2] addresses Carbonic anhydrase 2 (Homo sapiens, UniProt P00918). Put plainly: Inhibition of human cytosolic CA 2 preincubated for 15 mins by phenol red dye-based stopped-flow CO2 hydration assay.
In data set [3] the target is Carbonic anhydrase 9 (Homo sapiens, UniProt Q16790). Put plainly: Inhibition of membrane bound human CA 9 preincubated for 15 mins by phenol red dye-based stopped-flow CO2 hydration assay.
In data set [4] the target is T1, Carbonic anhydrase 12 (Homo sapiens, UniProt O43570). Put plainly: Inhibition of membrane bound human CA 12 preincubated for 15 mins by phenol red dye-based stopped-flow CO2 hydration assay.
In data set [5] the test system is PANC-1. In words: Cytotoxicity against human PANC1 cells assessed as reduction in cell viability incubated for 48 hrs under hypoxia condition by MTT assay relative to human ARPE19 cells. The data set is classed as functional. (In general: Tetrazolium dyes change colour on reduction, which living cells bring about.)
The target of data set [6] is T1, Carbonic anhydrase 12.
Description: Inhibition of human CA 12 catalytic domain
Data set [7] concerns SK-MEL-2. In words: Cytotoxicity against human SK-MEL-2 cells assessed as reduction in cell viability at 300 uM incubated for 48 hrs under normoxic condition by MTT assay relative to control. The data set is classed as functional, cell-based.
The test system of data set [8] is ARPE-19. Put plainly: Cytotoxicity against human ARPE19 cells assessed as reduction in cell viability incubated for 48 hrs under hypoxia condition by MTT assay relative to control. The data set is classed as cell-based. As to conditions: arpe-19, 48 h.
In data set [9] the test system is ARPE-19. In words: Cytotoxicity against human ARPE19 cells assessed as reduction in cell viability incubated for 48 hrs under normoxic condition by MTT assay relative to control. The data set is classed as cell-based. As to conditions: arpe-19, 48 h.
For data set [10], the system named is PANC-1. Put plainly: Cytotoxicity against human PANC1 cells assessed as reduction in cell viability incubated for 48 hrs under hypoxia condition by MTT assay. The data set is classed as functional, cell-based.
Data set [11] concerns SK-MEL-2. Put plainly: Cytotoxicity against human SK-MEL-2 cells assessed as reduction in cell viability incubated for 48 hrs under hypoxia condition by MTT assay relative to control. The data set is classed as functional, cell-based.
Data set [12] relates to PANC-1. Put plainly: Cytotoxicity against human PANC1 cells assessed as reduction in cell viability incubated for 48 hrs under normoxic condition by MTT assay relative to control. The data set is classed as functional, cell-based.
For data set [13], the system named is SK-MEL-2. Put plainly: Cytotoxicity against human SK-MEL-2 cells assessed as reduction in cell viability incubated for 48 hrs under normoxic condition by MTT assay relative to control. The data set is classed as functional, cell-based.
Data set [14] relates to PANC-1. In words: Cytotoxicity against human PANC1 cells assessed as reduction in cell viability incubated for 48 hrs under hypoxia condition by MTT assay relative to control. The data set is classed as functional, cell-based.

Calls of active or inactive are those of the source. No cut-off for these calls is given here.

This is an account of results in ChEMBL document CHEMBL4390661, “Pyridazinone-substituted benzenesulfonamides display potent inhibition of membrane-bound human carbonic anhydrase IX and promising antiproliferative activity against cancer cell lines” (Eur J Med Chem, 2019).

T1 sequence (O43570 whole entry): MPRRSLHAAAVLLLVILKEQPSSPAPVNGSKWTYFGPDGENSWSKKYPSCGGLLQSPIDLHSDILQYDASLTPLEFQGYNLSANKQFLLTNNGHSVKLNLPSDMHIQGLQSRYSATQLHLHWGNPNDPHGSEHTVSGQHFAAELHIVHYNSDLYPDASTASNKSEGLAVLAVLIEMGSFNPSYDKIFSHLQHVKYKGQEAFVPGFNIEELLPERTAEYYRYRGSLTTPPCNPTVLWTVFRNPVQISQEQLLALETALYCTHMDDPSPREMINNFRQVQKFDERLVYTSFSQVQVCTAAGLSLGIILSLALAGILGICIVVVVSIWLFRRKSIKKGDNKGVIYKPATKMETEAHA
Sequence of Carbonic anhydrase 1 (P00915 whole entry): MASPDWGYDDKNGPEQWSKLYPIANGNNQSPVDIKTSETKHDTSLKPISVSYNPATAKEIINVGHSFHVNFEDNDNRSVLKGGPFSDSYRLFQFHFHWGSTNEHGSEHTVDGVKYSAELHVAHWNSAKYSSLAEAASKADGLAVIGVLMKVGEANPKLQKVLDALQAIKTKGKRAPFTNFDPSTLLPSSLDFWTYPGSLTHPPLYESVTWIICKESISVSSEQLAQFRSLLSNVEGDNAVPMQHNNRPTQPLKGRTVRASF

For orientation: Ki means a measure of affinity in units of concentration, obtained from inhibition or displacement. Low values mean tighter binding, high ones weaker binding. On to `NS(=O)(=O)c1ccc(-n2ncc(N3CCN(c4ccccn4)CC3)c(Cl)c2=O)cc1`, for which the Ki was 676 nM in data set [1], 46.6 nM in [2], 89.5 nM in data set [3] and 105 nM in [4]. Also, in data set [5], the Activity is on record as over 30%.

For the compound `NS(=O)(=O)c1ccc(S(=O)(=O)Nc2cccc3c(Cl)c[nH]c23)cc1`, in data set [6], the affinity corresponds to a Ki of 3 nM.

On to `NS(=O)(=O)c1ccc(N2N=C(c3ccc(Cl)c(Cl)c3)CCC2=O)cc1`, for which the Ki is 5960 nM in [1], 74.1 nM in data set [2], 6 nM in data set [3] and 67.1 nM in [4].

For `NS(=O)(=O)c1ccc(-n2ncc(NCCCN3CCOCC3)c(Cl)c2=O)cc1`, the inhibitory constant (Ki) in data set [1] stood at 481 nM; in data set [2] it was 0.67 nM; in data set [3], 2.8 nM; in data set [4], 10.1 nM.

For `NS(=O)(=O)c1ccc(-n2ncc(Cl)c(Cl)c2=O)cc1`, the Ki in [1] was found to be 482 nM; in [2], 2.3 nM; in data set [3], 8.7 nM; in data set [4], 9.9 nM. Moreover, the Activity in data set [5] is listed as over 30%.

As to `NS(=O)(=O)c1ccc(-n2ncc(N3CCc4ccccc4C3)c(Cl)c2=O)cc1`, the Ki in data set [1] is 738 nM; in [2], 60.5 nM; in data set [3] it was 89.6 nM; in [4], 85.5 nM.

With `Cc1nn(-c2ccc(S(N)(=O)=O)cc2)c(=O)c2ccccc12`, the Ki in [1] came to 89.7 nM; in [2], 0.03 nM; in [3], 0.24 nM; in [4], 9 nM.

Consider `CCN1CCN(c2cnn(-c3ccc(S(N)(=O)=O)cc3)c(=O)c2)CC1`, for which the Ki in data set [1] amounted to 311 nM; in [2] it was 4.3 nM; in data set [3], 41.3 nM; in data set [4], 25.3 nM. Besides, the result in [7] was Active.

For the compound `COc1ccc(C2=NN(c3ccc(S(N)(=O)=O)cc3)C(=O)CC2)cc1`, the Ki in data set [1] turned out to be 92.7 nM; in data set [2] it was 0.08 nM; in [3] it was 2.4 nM; in [4], 9.9 nM. Moreover, the Activity in data set [5] is over 30%; in data set [8], “Dose-dependent effect”; in data set [9], “Dose-dependent effect”.

For `NS(=O)(=O)c1ccc(-n2ncc3ccccc3c2=O)cc1`, the inhibition constant Ki stood at 72.3 nM in [1], 0.23 nM in data set [2], 0.32 nM in data set [3] and 50.6 nM in data set [4].

As to `CC1=NN(c2ccc(S(N)(=O)=O)cc2)C(=O)CC1`, the Ki amounted to 88.2 nM in data set [1], 0.68 nM in data set [2], 32.8 nM in [3] and 31 nM in data set [4]. Moreover, the Activity in data set [5] was over 30%.

Turning to `NS(=O)(=O)c1ccc(-n2ncc(N3CCCCCC3)c(Cl)c2=O)cc1`, the Ki in data set [1] came to 97.4 nM; in data set [2], 0.06 nM; in data set [3], 0.49 nM; in data set [4], 8.4 nM. The Activity is on record as over 30% in data set [5], “Dose-dependent effect” in data set [8] and “Dose-dependent effect” in data set [9].

On to `Cc1cc(-c2cccnc2)nn(-c2ccc(S(N)(=O)=O)cc2)c1=O`, for which the Ki in data set [1] worked out at 101 nM; in data set [2] it was 2.9 nM; in data set [3], 2.3 nM; in data set [4] it was 8.8 nM.

Consider `NS(=O)(=O)c1ccc(-n2nc(-c3ccccc3O)ccc2=O)cc1`, for which the Ki in [1] is 84.1 nM; in data set [2], 0.62 nM; in [3] it was 0.46 nM; in [4], 9.3 nM.

Take `NS(=O)(=O)c1ccc(-n2ncc(N3CCCCCC3)cc2=O)cc1`: the Ki in data set [1] amounted to 88.2 nM; in data set [2], 0.08 nM; in data set [3], 0.56 nM; in [4], 6.3 nM.

For the compound `NS(=O)(=O)c1ccc(-n2ncc(NCc3ccccc3)c(Cl)c2=O)cc1`, the Ki in data set [1] worked out at 95.1 nM; in data set [2], 0.09 nM; in data set [3] it was 0.67 nM; in data set [4], 9.4 nM.

Consider `NS(=O)(=O)c1ccc(-n2nc(-c3ccc4c(c3)OCO4)ccc2=O)cc1`, for which the Ki stood at 99 nM in data set [1], 1.4 nM in data set [2], 28.2 nM in data set [3] and 63.7 nM in data set [4].

As for `CCN1CCN(c2cnn(-c3ccc(S(N)(=O)=O)cc3)c(=O)c2Cl)CC1`, the outcome in [10], in data set [11], in data set [12], in [13] and in data set [14] was inactive. Besides, the Ki turned out to be 485 nM in [1], 0.29 nM in data set [2], 0.7 nM in data set [3] and 7.2 nM in data set [4]. Moreover, the Activity in data set [5] is reported as over 30%; in data set [8], “Non-Toxic”; in [9], “Non-Toxic”.

In the case of `COc1ccc2cnn(-c3ccc(S(N)(=O)=O)cc3)c(=O)c2c1OC`, the Ki in data set [1] was 90.7 nM; in data set [2], 3.5 nM; in data set [3], 8.9 nM; in [4], 66.4 nM.

Take `NS(=O)(=O)c1ccc(-n2nc(-c3ccncc3)ccc2=O)cc1`: the Ki in [1] was found to be 227 nM; in data set [2], 4.8 nM; in data set [3] it was 50.8 nM; in data set [4] it was 8.7 nM.

For the compound `NS(=O)(=O)c1ccc(-n2ncccc2=O)cc1`, the result in [10], in data set [11], in [12], in data set [13] and in [14] was inactive. The Ki in [1] was determined as 320 nM; in data set [2], 8.2 nM; in [3], 9 nM; in data set [4], 81.2 nM. The Activity was over 30% in data set [5], “Non-Toxic” in [8] and “Non-Toxic” in data set [9].

In the case of `NS(=O)(=O)c1ccc(-n2ncc(N3CCOCC3)c(Cl)c2=O)cc1`, the Ki was 89 nM in [1], 0.07 nM in data set [2], 0.58 nM in [3] and 36 nM in [4]. Besides, the Activity in data set [5] is over 30%; in [11], “Dose-dependent effect”; in data set [9], “Non-Toxic”; in [13], “Dose-dependent effect”.

In the case of `NS(=O)(=O)c1ccc(N2N=C(c3ccccc3)CCC2=O)cc1`, the Ki in data set [1] worked out at 187 nM; in data set [2], 0.26 nM; in data set [3] it was 4.8 nM; in [4] it was 22.5 nM.

`NS(=O)(=O)c1ccc(-n2ncc(N3CCOCC3)cc2=O)cc1`: the Ki amounted to 292 nM in data set [1], 0.55 nM in [2], 2.1 nM in data set [3] and 9.8 nM in data set [4].
